Reference: patent US11821892B2, “Nanobubbles” (Purdue Research Foundation, priority 2014, dated 2023)

Columns and labels:
MB49 cells = experiment: In vitro beam steering factorial design, MB49 cell viability; format: cell-based, mouse
HIF-1 = experiment: Immunohistochemistry of mouse bladder tumors, HIF-1; format: in vivo; conditions: ex vivo mouse bladder tumor, compared to control
Protocol: (§1) Histology slides were prepared and immunohistochemistry was performed at Immunohistochemistry Laboratory at IU Health Pathology. Harvested organ tissue and bladder tumors were fixed in formalin-free IHC Zinc Fixative, embedded in paraffin, and sectioned into 5 μm slices. HIF-1 and VEGF immunohistochemistry was performed using buffered zinc formalin fixed tumor section. Blocking, antigen retrieval, and primary and secondary antibody staining were performed […]. The tissue sections were imaged using Leica DMi1 inverted microscope, and image processing was performed using ImageJ software (Research Services, National Institute of Health). Each tissue section was imaged under ×20 and ×40 magnification, composite images were converted to RGB stacks and integrated density of staining was calculated.
(§2) Angiogenesis and high density of blood vessels has been correlated with poor prognosis, metastasis, and bladder cancer invasion in clinical studies.

VEGF = experiment: Immunohistochemistry of mouse bladder tumors, VEGF; format: in vivo; conditions: ex vivo mouse bladder tumor, compared to control
Protocol: as §1, §2

MB49 bladder tumor [1] = conditions: MMC 1 μg/mL; ONB-MMC 0.5 μg/mL MMC and 2 mg/mL ONB; intravesical
Excerpt: (§3) Female C57BL/6 mice were anesthetized by 1-2% isoflurane gas inhalation at 2 L/min. Electrocauterization technique was used to create a minor injury on the wall of the bladder for MB49 cells to adhere to. A 24 gauge Teflon catheter (Terumo Surflo PTFE I.V. Catheters, Fisher Scientific) was inserted into the bladder through the urethra. Minor pressure was applied onto the bladder area to release the urine from the bladder. A wire, connected to the electrocautery unit was then instilled into the bladder through the catheter. 1×10^4 MB49 cells were then instilled into the bladder; dwelling time was approximately 20 minutes to allow the cells to adhere to the injured bladder wall.
(§4) After the bubbles were injected intravesically, a pulsed wave Doppler beam was applied for five minutes and B-mode images were recorded.
(§5) The mice were imaged 48 hours after the instillation of the tumors and treatment was administered every other day based on previously established protocols.
(§6) 3D images of bladder tumor were taken every other day using the Vevo 2100 ultrasound imaging system (Fujifilm VisualSonics Inc., Toronto CA). Vevo Lab software was used to manually segment given 3D images in 2D slices, with step sizes that can be as small as 10 μm. Segmentation of a 3D image allowed accurate volume measurements to be taken from each 3D image. […]

MB49 bladder tumor [2] = experiment: Intravesical treatment with ultrasound beam steering in orthotopic MB49 bladder cancer mouse model; conditions: in vivo
Excerpt: as §3, §4, §5, §6

For CO[C@@]12[C@H](COC(N)=O)C3=C(C(=O)C(C)=C(N)C3=O)N1C[C@@H]1N[C@@H]12 [MMC, mitomycin-C], which “effect on MB49 cell viability (factorial design)” value (MB49 cells; MMC 0.05-5 μg/mL, ONB 0.2-20 mg/mL) is on record?
Its value is “significant in decreasing cell viability”.

What about the “effect of ultrasound beam steering on cell viability” value (MB49 cells; beam ON/OFF, MMC 0.5 μg/mL and ONB 2 mg/mL at medium concentration) of the same compound?
Its value is “No significant effect”.

And the “HIF-1 expression (IHC)” value (HIF-1)?
Its value is “significantly lower”.

What about the “VEGF expression (IHC)” value (VEGF) of the same compound?
Its value is “significantly lower”.

And the “tumor volume compared to CTRL” value (MB49 bladder tumor [1])?
The value was “significant in reducing the tumor volume”.

What about the “average mouse body weights compared to ONB-MMC groups” value (MB49 bladder tumor [2]) of the same compound?
The value was “significantly lower”.
